Measured values from publication PMC9386018, “A lymphatic-absorbed multi-targeted kinase inhibitor for myelofibrosis therapy” (Nature Communications, 2022).
“And” between values parts separate entries of the source, which are not always exact repeats. Equal entries are not always repeated.

What was measured:
[1] = Pathological and histological toxicity screening in healthy mice; assay type: in vivo, mouse; set-up: Hematology Analysis WBC: unit not given here; conditions: for Body weight: Supplementary Figure 8a
Experimental: Female CD-1 mice were dosed orally with vehicle (Maisine CC; n = 5) or LP-182 at 400 mg kg^−1 (n = 4) daily for 10 d, followed by an 8 d rest period, then underwent necropsy for hematological, histological, and pathological evaluation by the University of Michigan Unit for Laboratory Animal Medicine In Vivo Animal Core. Untreated animals (n = 3) were also monitored during the study for non-compound related adverse findings (ie. gavage stress impacting weight gain, vehicle-related toxicity), however no findings were observed, thus main comparisons were made between vehicle and compound treated mice. […] Briefly, mice were euthanized by CO2 inhalation, then blood was collected by cardiac puncture and transferred into EDTA anticoagulant-containing tubes, followed by gross necropsy, then tissue harvest and fixation in 10% neutral buffered formalin at a 10:1 (v/v) ratio of fixative to tissue. Differential blood counts were generated from whole blood using a Hemavet 950 automated hematology analyzer (Drew Scientific), and tissues were processed for paraffin embedding using routine histological methods, then sectioned at 4 µm by rotary microtome and mounted on glass slides for hematoxylin and eosin (H&E) staining and evaluation by light microscopy at magnifications ranging from 10–40x. Data was generated from n ≥ 3 individual animals per grouping. Two animals in the vehicle treated group were excluded from blood count analysis due to insufficient sample collection and sample clotting, respectively.

[2] = system: MPL^W515L mouse model of myelofibrosis; test: MPL^W515L MF mouse model: spleen volume by MRI (Study 1); assay type: in vivo; conditions: MPL^W515L mice; for Spleen volume to body weight ratio (mm3/g): individual animals
Experimental: Generation of the MPL^W515L mutant MF mouse model was similar to previously described methods. Briefly, female donor BALB/c mice were treated with 5-fluorouracil at 150 mg kg^−1 intraperitoneal for 5 d before harvesting bone marrow. Hematopoietic stem and progenitor cells were enriched with CD117 magnetic beads (Miltenyi Biotec), transduced with retrovirus containing MSCV-hMPL W515L-IRES-GFP, then 50,000 transduced HSPCs along with 300,000 total non-stem cells were injected intravenously into lethally irradiated female BALB/c recipients. Development of MF was evaluated by spleen volumes using MRI beginning ~14 d following bone marrow transplantation (BMT) as outlined below, continuing weekly until end of the study. Mice were separated into equal groups based on spleen size ~14–21 d post-BMT, then treated with vehicle (Maisine CC) or LP-182 at 400 mg kg^−1 daily by oral gavage for 14–28 d or until mice were euthanized using guidelines for end stage illness and humane endpoints. Untreated healthy control animals were used for experimental comparisons. Tissues were harvested and processed for flow cytometry (as described above), LCMS/MS, immuno-blotting, and histological analysis (as described in Supplementary Methods) at the defined study endpoint(s), approximately 1–2 h post-treatment with vehicle or LP-182. Briefly, blood samples were collected, transferred into K2-EDTA tubes (BD Microtainer), inverted gently to mix, then centrifuged at 2000 x g for 15 min. […] Dissection and bone marrow isolation from mouse femur and tibia was performed similar to previously described methods. Briefly, the hind limbs from mice were dissected, muscle and connective tissue removed, and bones were frozen at −80 °C. Femur and tibia were thawed separately, placed knee-end down in 18 gauge needle-pierced 0.5 mL microcentrifuge tubes nested inside 1.5 or 2 mL microcentrifuge tubes containing 1.4 mm ceramic beads (Fisher Scientific), then bone marrow was isolated by centrifugation at 10,000 x g for 1 min and processed for analysis by LCMS/MS (above; femur) or immuno-blotting (tibia). […] Soluble protein extracts were isolated by centrifugation at 15,000 x g for 15 min at 4 °C, quantified using Micro BCA protein assay (Thermo Scientific), then mixed with reducing 6X SDS-PAGE loading dye, heated for 8 min at 95 °C, and stored at −20 °C until immuno-blot analysis. Whole cell lysates were resolved by 10% SDS-PAGE, transferred to PVDF (Immobilon-P; MilliporeSigma), then membranes were blocked with 5% BSA (Equitech-Bio) in TBS containing 0.1% Tween-20 (TBST) for 1 h at room temperature with gentle orbital shaking. Membranes were incubated with primary antibodies in 5% BSA/TBST overnight at 4 °C or 5% skim milk/TBST (Lab Scientific) for 1 h at room temperature, then washed with TBST, and incubated with HRP-conjugated secondary antibodies in 5% skim milk/TBST for 1.5 h at room temperature, all with gentle platform rocking. Membranes were washed with TBST, then visualized by chemiluminescence on a BioRad ChemiDoc MP Imaging System using SuperSignal West PicoPLUS or West Femto Chemiluminescent Substrate (Thermo Scientific). Membranes were stripped using Restore PLUS Western Blot Stripping Buffer (Thermo Scientific) as per manufacturer’s instructions and re-probed with additional primary antibodies as described above. […] All antibodies were used at dilutions recommended by their specified manufacturers or optimized empirically. Additional reagents were purchased from MilliporeSigma (St. Louis, MO) unless otherwise specified. Tissues for histology were formalin-fixed, paraffin-embedded, sectioned, and stained with Hematoxylin and Eosin (H&E) to assess cellularity and tissue morphology, with Reticulin Stain Kit (Connective Tissue Stain; Abcam) to assess fibrosis, or processed for immunohistochemistry staining with GFP to assess MPL^W515L-positive cellularity. […]

[3] = system: MPL^W515L mouse model of myelofibrosis; test: MPL^W515L MF mouse model: histology of spleen, liver and bone marrow; assay type: in vivo; conditions: MPL^W515L mice, oral 400 mg kg^−1 daily, 28 d
Experimental: Generation of the MPL^W515L mutant MF mouse model was similar to previously described methods. Briefly, female donor BALB/c mice were treated with 5-fluorouracil at 150 mg kg^−1 intraperitoneal for 5 d before harvesting bone marrow. Hematopoietic stem and progenitor cells were enriched with CD117 magnetic beads (Miltenyi Biotec), transduced with retrovirus containing MSCV-hMPL W515L-IRES-GFP, then 50,000 transduced HSPCs along with 300,000 total non-stem cells were injected intravenously into lethally irradiated female BALB/c recipients. Development of MF was evaluated by spleen volumes using MRI beginning ~14 d following bone marrow transplantation (BMT) as outlined below, continuing weekly until end of the study. Mice were separated into equal groups based on spleen size ~14–21 d post-BMT, then treated with vehicle (Maisine CC) or LP-182 at 400 mg kg^−1 daily by oral gavage for 14–28 d or until mice were euthanized using guidelines for end stage illness and humane endpoints. Untreated healthy control animals were used for experimental comparisons. […] Soluble protein extracts were isolated by centrifugation at 15,000 x g for 15 min at 4 °C, quantified using Micro BCA protein assay (Thermo Scientific), then mixed with reducing 6X SDS-PAGE loading dye, heated for 8 min at 95 °C, and stored at −20 °C until immuno-blot analysis. […]

[4] = healthy mice, oral 400 mg kg^−1 for 10 d, 8 d rest
[5] = individual animals, Supplementary Figure 8c
[6] = individual animals, Supplementary Figure 8c, in 10^3/µL (unit assumed)
[7] = individual animals, Supplementary Figure 8c, in % (unit assumed)
[8] = individual animals, Supplementary Figure 8c, in fL (unit assumed)
[9] = individual animals, Supplementary Figure 8c, in g/dL (unit assumed)

## O=C(NOCCOCCOCCOCCC(=O)N1CCN(c2cnc3ccc(-c4cnc(Cl)c(NS(=O)(=O)c5ccc(F)cc5)c4)cc3n2)CC1)c1ccc(F)c(F)c1Nc1ccc(I)cc1F [LP-182, N-(2-(2-(2-(3-(4-(7-(6-chloro-5-((4-fluorophenyl)sulfonamido)pyridin-3-yl)quinoxalin-2-yl)piperazin-1-yl)-3-oxopropoxy)ethoxy)ethoxy)ethoxy)-3,4-difluoro-2-((2-fluoro-4-iodophenyl)amino)benzamide]
[1]; Brain, individual animals, Supplementary Figure 8b
  Relative organ/body weight, Brain: 1.539% and 1.685% and 1.7935% and 1.6704%
[1]; Left kidney, individual animals, Supplementary Figure 8b
  Relative organ/body weight, Left kidney: 0.6549% and 0.6559% and 0.6824% and 0.6502%
[1]; Liver, individual animals, Supplementary Figure 8b
  Relative organ/body weight, Liver: 5.775% and 6.631% and 5.788% and 5.583%
[1]; Right kidney, individual animals, Supplementary Figure 8b
  Relative organ/body weight, Right kidney: 0.662% and 0.6523% and 0.6788% and 0.6203%
[1]; Spleen, individual animals, Supplementary Figure 8b
  Relative organ/body weight, Spleen: 0.5915% and 0.4229% and 0.6217% and 0.4223%
[1]; Thymus, individual animals, Supplementary Figure 8b
  Relative organ/body weight, Thymus: 0.2641% and 0.1505% and 0.283% and 0.2317%
[1]; Time 1 d, individual animals
  Body weight: 24 g and 26 g and 25 g (2×)
[1]; Time 5 d, individual animals
  Body weight: 26 g (3×) and 27 g
[1]; Time 10 d, individual animals
  Body weight: 26 g (3×) and 27 g
[1]; Time 15 d, individual animals
  Body weight: 27 g (3×) and 30 g
[1]; Time 18 d, individual animals
  Body weight: 28.4 g and 27.9 g and 27.99 g and 26.76 g
[1]; [4]
  adverse effects, body weight, complete blood counts: no adverse effects, change in body weight, or change in complete blood counts
  necropsy histopathology: no histopathological abnormalities
  tolerability: well tolerated with no observed toxicity
[1]; [5]
  Hematology Analysis BA: 0.03 and 0.02 and 0.04 and 0.06
  Hematology Analysis EO: 0.24 and 0.11 and 0.2 and 0.16
  Hematology Analysis WBC: 7.06 and 10.06 and 5.16 (2×)
[1]; [6]
  Hematology Analysis LY: 4.99 and 6.24 and 3.4 and 3.44
  Hematology Analysis MO: 0.24 and 0.93 and 0.14 and 0.21
  Hematology Analysis NE: 1.57 and 2.76 and 1.38 and 1.3
  Hematology Analysis PLT: 721 and 1152 and 272 and 338
[1]; individual animals, Supplementary Figure 8c, in 10^6/µL (unit assumed)
  Hematology Analysis RBC: 8.48 and 9.05 and 9.08 and 9.55
[1]; [7]
  Hematology Analysis HCT: 49.5 and 47.2 and 51.7 and 49.4
  Hematology Analysis RDW: 16.8 and 16.2 and 17.4 and 15.3
[1]; [8]
  Hematology Analysis MCV: 58.4 and 52.2 and 56.9 and 51.7
  Hematology Analysis MPV: 5.2 and 4.6 and 5.8 and 5.6
[1]; [9]
  Hematology Analysis HB: 13.7 and 13.8 and 15 and 14.2
  Hematology Analysis MCHC: 27.7 and 29.2 and 29 and 28.7
[1]; individual animals, Supplementary Figure 8c, in pg (unit assumed)
  Hematology Analysis MCH: 16.2 and 15.2 and 16.5 and 14.9
[2]; LP-182 group, treatment length 0 d (baseline)
  Spleen volume to body weight ratio (mm3/g): 31.0875 mm3/g and 17.4312 mm3/g and 19.0791 mm3/g and 34.919 mm3/g and 29.5281 mm3/g
[2]; LP-182 group, treatment length -7 d (before treatment)
  Spleen volume to body weight ratio (mm3/g): 15.1103 mm3/g and 6.53 mm3/g and 9.708 mm3/g and 8.386 mm3/g and 11.4368 mm3/g
[2]; oral 400 mg kg^−1 daily, after 14 d
  reduction of spleen volume compared to vehicle: ~ 35%
[2]; oral 400 mg kg^−1 daily, treatment length 7 d
  Spleen volume to body weight ratio (mm3/g): 26.2397 mm3/g and 11.9227 mm3/g and 23.2289 mm3/g and 24.8013 mm3/g and 24.121 mm3/g
[2]; oral 400 mg kg^−1 daily, treatment length 14 d
  Spleen volume to body weight ratio (mm3/g): 25.0148 mm3/g and 4.765 mm3/g and 27.3514 mm3/g and 25.4021 mm3/g and 32.6974 mm3/g
[2]; oral 400 mg kg^−1 daily, treatment length 21 d
  Spleen volume to body weight ratio (mm3/g): 28.0008 mm3/g and 4.203 mm3/g and 24.753 mm3/g and 31.0963 mm3/g and 27.5586 mm3/g
[3]
  extramedullary hematopoiesis, number of MKs and MPL^W515L-positive MKs: reduced
  reticulin fibrosis in bone marrow: diminution of reticulin fibrosis
